Read-outs that look alike come from different tables or passages of the source.
Key:
Format in all cases: in vivo
[1] = test system: Erysiphe graminis tritici (powdery mildew); assay: Test 1 greenhouse foliar spray screen, powdery mildew on wheat; details: for POWD MDEW: disease control rating, foliar spray on wheat, 400 ppm (+++ at 100 ppm)
[2] = test system: Pyricularia oryzae (rice blast); assay: whole plant or invertebrate; details: for RICE BLAST: disease control rating, foliar spray on rice, 400 ppm (+++ at 100 ppm)
[3] = test system: Puccinia recondita tritici (leaf rust); assay: Test 1 greenhouse foliar spray screen, leaf rust on wheat; details: for LEAF RUST: disease control rating, foliar spray on wheat, 400 ppm (+++ at 100 ppm)
[4] = test system: Botrytis cinerea (gray mold); assay: Test 1 greenhouse foliar spray screen, gray mold on grape berries; details: for GRAY MOLD: disease control rating, spray on grape berries, 400 ppm (+++ at 100 ppm)
[5] = test system: Pseudoperonospora cubensis (downy mildew); assay: Test 1 greenhouse foliar spray screen, downy mildew on squash; details: for DOWN MDEW: disease control rating, foliar spray on squash, 400 ppm (+++ at 100 ppm); for activity against downy mildew: summary statement in the description
[6] = test system: Cercospora beticola (leaf spot); assay: Test 1 greenhouse foliar spray screen, leaf spot on sugar beet; details: for LEAF SPOT: disease control rating, foliar spray on sugar beet, 400 ppm (+++ at 100 ppm)
[7] = test system: Venturia inaequalis (apple scab); assay: Test 1 greenhouse foliar spray screen, apple scab on apple seedling; details: for APPL SCAB: disease control rating, foliar spray on apple seedling, 400 ppm (+++ at 100 ppm)
[8] = test system: Septoria tritici (leaf blotch); assay: Test 1 greenhouse foliar spray screen, leaf blotch on wheat; details: for LEAF BLOT: disease control rating, foliar spray on wheat, 400 ppm (+++ at 100 ppm)
[9] = test system: Plasmopara viticola; assay: Field tests against plant pathogens; details: field test, crop grape
From the text: (§1) Selected compounds were field tested against a variety of plant pathogens. […]

[10] = test system: southern armyworm (Spodopetra eridania Cramer); assay: Mite/insect screen, SAW; details: Spodoptera eridania, percent mortality, read-out: SAW RESULTS %
Outline: (§2)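 Read-out: percent mortality after standard exposure periods. Test solutions were water dilutions of compound dissolved in acetone/alcohol (50:50) with emulsifier blends; leaves were sprayed to runoff on both surfaces and air-dried for one hour before exposure.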

[11] = test system: Twospotted spider mites (Tetranychus urticae Koch); assay: Mite/insect screen, SM; details: Tetranychus urticae, percent mortality, read-out: SM RESULTS %
Outline: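 Foliar spray to runoff (10 psi), 1 h drying; aqueous dilutions from acetone/alcohol emulsifier stock. Mortality (%) after standard exposure.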

[12] = test system: melon aphids (Aphis gossypii Glover); assay: Mite/insect screen, MA; details: Aphis gossypii, percent mortality, read-out: MA RESULTS %
Outline: as §2

[13] = test system: corn rootworm; assay: Mite/insect screen, CRW; details: percent mortality, read-out: CRW RESULTS %
Outline: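 Read-out: % mortality after standard exposure. Formulation: acetone/alcohol (50:50) with emulsifiers at 23 g and 13 g per liter, water-diluted to final test levels.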

[14] = test system: Phytophthora infestans; details: field test
[15] = test system: Pyrenophora teres; assay: Field tests against plant pathogens; details: field test, crop barley
From the text: as §1

[16] = test system: plant pathogens; assay: Fungicidal efficacy against a broad spectrum of plant pathogens (summary of screen); details: summary statement in the description
[17] = foliar, rate 200 ppm, foliar spray on squash
[18] = foliar, rate 400 ppm, foliar spray on squash

## Fc1cccc2c(NCCc3ccccc3C(F)(F)F)ccnc12 [Example 97, 8-fluoro-N-[2-[2-(trifluoromethyl)phenyl]ethyl]-4-quinolinamine]
[1]
  POWD MDEW: + (20-89% control at 400 ppm)
[2]
  RICE BLAST: +++ (90-100% control at 100 ppm)
[3]
  LEAF RUST: +++ (90-100% control at 100 ppm)
[4]
  GRAY MOLD: - (0-19% control at 400 ppm)
[5]
  DOWN MDEW: +++ (90-100% control at 100 ppm)
  activity against downy mildew: particularly excellent activity
[6]
  LEAF SPOT: +++ (90-100% control at 100 ppm)
[7]
  APPL SCAB: - (0-19% control at 400 ppm)
[8]
  LEAF BLOT: +++ (90-100% control at 100 ppm)
[9]
  pathogens against which compounds of the invention showed activity: Plasmopara viticola
[10]; SAW, SM & MA RATE 200 PPM
  mortality at 200 ppm: 0%
[11]; SAW, SM & MA RATE 200 PPM
  mortality at 200 ppm: 0%
[12]; SAW, SM & MA RATE 200 PPM
  mortality at 200 ppm: 0%
[13]; CRW RATE 12.00 PPM
  mortality at 12 ppm: 0%

## Fc1cccc2c(NCCc3cccs3)ccnc12 [Example 173, 8-fluoro-N-[2-(2-thienyl)ethyl]-4-quinolinamine]
[1]
  POWD MDEW: + (20-89% control at 400 ppm)
[2]
  RICE BLAST: + (20-89% control at 400 ppm)
[3]
  LEAF RUST: ++ (90-100% control at 400 ppm)
[4]
  GRAY MOLD: - (0-19% control at 400 ppm)
[5]
  DOWN MDEW: +++ (90-100% control at 100 ppm)
  activity against downy mildew: particularly excellent activity
[6]
  LEAF SPOT: +++ (90-100% control at 100 ppm)
[7]
  APPL SCAB: - (0-19% control at 400 ppm)
[8]
  LEAF BLOT: + (20-89% control at 400 ppm)
[9]
  pathogens against which compounds of the invention showed activity: Plasmopara viticola
[10]; [17]
  mortality at 200 ppm: 0%
[11]; [17]
  mortality at 200 ppm: 0%
[12]; [17]
  mortality at 200 ppm: 0%
[13]; CRW rate 12.00 ppm
  mortality at 12 ppm: 0%

## c1ccc(CCNc2ccnc3ccccc23)cc1 [Example 2, N-(2-phenylethyl)-4-quinolinamine]
[1]
  POWD MDEW: - (0-19% control at 400 ppm)
[2]
  RICE BLAST: - (0-19% control at 400 ppm)
[3]
  LEAF RUST: - (0-19% control at 400 ppm)
[4]
  GRAY MOLD: - (0-19% control at 400 ppm)
[5]
  DOWN MDEW: +++ (90-100% control at 100 ppm)
[7]
  APPL SCAB: - (0-19% control at 400 ppm)
[8]
  LEAF BLOT: - (0-19% control at 400 ppm)
[14]; crop potato
  pathogens against which compounds of the invention showed activity: Phytophthora infestans
[14]; crop tomato
  pathogens against which compounds of the invention showed activity: Phytophthora infestans
[15]
  pathogens against which compounds of the invention showed activity: Pyrenophora teres
[10]; SAW, SM & MA RATE 200 PPM
  mortality at 200 ppm: 0%
[11]; SAW, SM & MA RATE 200 PPM
  mortality at 200 ppm: 0%
[12]; SAW, SM & MA RATE 200 PPM
  mortality at 200 ppm: 0%
[13]; CRW RATE 12.00 PPM
  mortality at 12 ppm: 0%

## CC(C)(C)c1ccc(CCCc2ccnc3c(F)cccc23)cc1 [Example 260, 4-[3-[4-(t-butyl)phenyl]propyl]-8-fluoroquinoline]
[1]; Blumeria graminis, foliar, Test 1, foliar spray on wheat, disease control rating at 400 ppm / 100 ppm, read-out: POWD MDEW
  pest or weed control at 400 ppm: 90 to 100%
[2]; Pyricularia oryzae, foliar, read-out: RICE BLAST, Test 1, foliar spray on rice, disease control rating at 400 ppm / 100 ppm
  pest or weed control at 400 ppm: 90 to 100%
[2]; summary statement in the description
  activity against rice blast: particularly excellent activity
[3]; Puccinia recondita, foliar, Test 1, foliar spray on wheat, disease control rating at 400 ppm / 100 ppm
  pest or weed control at 400 ppm: 90 to 100%
[4]; Botrytis cinerea, foliar, Test 1, spray on grape berries, disease control rating at 400 ppm / 100 ppm
  pest or weed control at 400 ppm: 0 to 19%
[5]; Pseudoperonospora cubensis, foliar, Test 1, foliar spray on squash, disease control rating at 400 ppm / 100 ppm, read-out: DOWN MDEW
  pest or weed control at 400 ppm: 90 to 100%
[6]; Cercospora beticola, Test 1, foliar spray on sugar beet, disease control rating at 400 ppm / 100 ppm
  pest or weed control at 400 ppm: 20 to 89%
[7]; Venturia inaequalis, Test 1, foliar spray on apple seedling, disease control rating at 400 ppm / 100 ppm, read-out: APPL SCAB
  pest or weed control at 400 ppm: 0 to 19%
[8]; Zymoseptoria tritici, Test 1, foliar spray on wheat, disease control rating at 400 ppm / 100 ppm, read-out: LEAF BLOT
  pest or weed control at 400 ppm: 90 to 100%
[16]
  activity against a broad spectrum of plant pathogens: particularly excellent activity
[10]; [17]
  mortality at 200 ppm: 100%
[10]; [18]
  mortality at 400 ppm: 40%
[11]; [17]
  mortality at 200 ppm: 100%
[11]; [18]
  mortality at 400 ppm: 0%
[12]; [17]
  mortality at 200 ppm: 100%
[12]; [18]
  mortality at 400 ppm: 0%
[13]; CRW rate 12.00 ppm
  mortality at 12 ppm: 0%
[13]; CRW rate 24.00 ppm
  mortality at 24 ppm: 40%
